Experimental data as given in US9440930B2, “Substituted bicyclic dihydropyrimidinones and their use as inhibitors of neutrophil elastase activity” (Boehringer Ingelheim International GmbH, priority 2014, dated 2016).
pIC50: −log10 of the molar value.

Experiments:
Format in all cases: in vitro ADME
[1] = Metabolic stability with human liver microsomes; details: pooled human liver microsomes, pH 7.6; human liver microsomes 1 mg/ml, 1 μM compound, 37° C., NADPH; read-out: t1/2 INVITRO
[2] = Drug transport across human Caco-2 cells; details: pH 7.2, 37° C.
Text: Assay for Determination of Drug Transport Across Human Caco-2 Cells
The assay provides information on the potential of a compound to pass the cell membrane, on the extent of oral absorption as well as on whether the compound is actively transported by uptake and/or efflux transporters. For the measurement of permeability across polarized, confluent human cancer colon carcinoma cells 2 (Caco-2) cell monolayers grown on permeable filter supports are used as the in vitro absorption model.
Apparent permeability coefficients (PE) of the compounds across the Caco-2 monolayers are measured (pH 7.2, 37° C.) in apical-to-basal (AB) (absorptive) and basal-to-apical (BA) (secretory) transport direction. AB permeability (PEAB) represents drug absorption from the intestine into the blood and BA permeability (PEBA) drug secretion from the blood back into the intestine via both passive permeability as well as active transport mechanisms mediated by efflux and uptake transporters that are expressed on the Caco-2 cells. The compounds are assigned to permeability/absorption classes by comparison of the AB permeabilities with the AB permeabilities of reference compounds with known in vitro permeability and oral absorption in the human. Identical or similar permeabilities in both transport directions indicate passive permeation, vectorial permeability points to additional active transport mechanisms. […] Active transport is concentration-dependently saturable.
Caco-2 cells (1-2*10^5 cells/cm^2 area) are seeded on filter inserts (Costar transwell polycarbonate or PET filters, 0.4 μm pore size) and cultured (DMEM) for 10 to 25 days. Compounds are dissolved in appropriate solvent (like DMSO, 1-20 min stock solutions). Stock solutions are diluted with HTP-4 buffer (128.13 min NaCl, 5.36 min KCl, 1 mM MgSO4, 1.8 min CaCl2, 4.17 min NaHCO3, 1.19 min Na2HPO4×7H2O, 0.41 mM NaH2PO4×H2O, 15 min HEPES, 20 min glucose, pH 7.2) to prepare the transport solutions (typically 10 μM compound, final DMSO<=0.5%). The transport solution (TL) is applied to the apical or basolateral donor side for measuring A-B or B-A permeability (3 filter replicates), respectively. The receiver side contains HTP-4 buffer supplemented with 2% BSA. Samples are collected at the start and end of experiment from the donor and at various time intervals for up to 2 hours also from the receiver side for concentration measurement by LC-MS/MS or scintillation counting. Sampled receiver volumes are replaced with fresh receiver solution.

[3] = molecular target: T1, cytochrome P450 2C8 (Homo sapiens, UniProt P10632); test: Cytochrome P450 2C8 inhibition; details: human liver microsomes, Amodiaquine deethylation
T1 construct: is assayed at 37° C. with human liver microsomes; from tissue; host or cells: human liver microsomes
T1 sequence (P10632 1-490): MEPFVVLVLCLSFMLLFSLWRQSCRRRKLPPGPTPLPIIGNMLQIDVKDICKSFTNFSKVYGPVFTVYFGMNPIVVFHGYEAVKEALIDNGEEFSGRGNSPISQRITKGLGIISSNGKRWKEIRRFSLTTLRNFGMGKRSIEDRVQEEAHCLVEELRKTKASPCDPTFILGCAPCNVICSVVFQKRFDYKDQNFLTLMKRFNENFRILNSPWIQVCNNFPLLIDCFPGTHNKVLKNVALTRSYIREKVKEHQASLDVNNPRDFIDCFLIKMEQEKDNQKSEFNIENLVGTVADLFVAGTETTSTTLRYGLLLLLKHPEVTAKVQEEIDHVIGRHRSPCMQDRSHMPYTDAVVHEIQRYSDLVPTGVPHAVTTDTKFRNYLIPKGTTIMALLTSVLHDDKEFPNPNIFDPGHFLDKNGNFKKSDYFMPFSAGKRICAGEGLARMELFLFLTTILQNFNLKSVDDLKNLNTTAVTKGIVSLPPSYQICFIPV
Text: Assay for Determination of Cytochrome P450 2C8 Inhibition

[4] = molecular target: T2, cytochrome P450 2C19 (Homo sapiens, UniProt P33261); test: Cytochrome P450 2C19 inhibition; details: human liver microsomes, (S)-Mephenytoin hydroxylation
T2 construct: is assayed at 37° C. with human liver microsomes; from tissue; host or cells: human liver microsomes
Text: Assay for Determination of Cytochrome P450 2C19 Inhibition

[5] = test system: human hepatocytes; test: Metabolic stability with human hepatocytes; details: human hepatocyte suspension, 1 μM compound, well stirred model
Description: Assay for the Determination of Metabolic Stability with Human Hepatocytes
The metabolic degradation of the test compound is assayed in a human hepatocyte suspension. Human hepatocytes (typically cryopreserved) are incubated in an appropriate buffer system (e.g. Dulbecco's modified eagle medium plus 3.5 μg glucagon/500 mL, 2.5 mg insulin/500 mL and 3.75 mg/500 mL hydrocortison) containing 5% species serum. Following a (typically) 30 min preincubation in an incubator (37° C., 10% CO2), 5 μl of test compound solution (80 μM; from 2 min stock solution in DMSO diluted 1:25 with medium) are added into 395 μl hepatocyte suspension (cell density in the range 0.25-5*10^6 cells/mL, typically 1*10^6 cells/mL; final concentration of test compound 1 μM, final DMSO concentration 0.05%). The cells are incubated for six hours (incubator, orbital shaker) and samples (25 μl) are taken at 0, 0.5, 1, 2, 4 and 6 hours. Samples are transferred into acetonitrile and pelleted by centrifugation (5 min). The supernatant is transferred to a new 96-deepwell plate, evaporated under nitrogen and resuspended. The decline of parent compound is analyzed by LC-MS/MS. […]

T2 sequence (P33261 whole entry): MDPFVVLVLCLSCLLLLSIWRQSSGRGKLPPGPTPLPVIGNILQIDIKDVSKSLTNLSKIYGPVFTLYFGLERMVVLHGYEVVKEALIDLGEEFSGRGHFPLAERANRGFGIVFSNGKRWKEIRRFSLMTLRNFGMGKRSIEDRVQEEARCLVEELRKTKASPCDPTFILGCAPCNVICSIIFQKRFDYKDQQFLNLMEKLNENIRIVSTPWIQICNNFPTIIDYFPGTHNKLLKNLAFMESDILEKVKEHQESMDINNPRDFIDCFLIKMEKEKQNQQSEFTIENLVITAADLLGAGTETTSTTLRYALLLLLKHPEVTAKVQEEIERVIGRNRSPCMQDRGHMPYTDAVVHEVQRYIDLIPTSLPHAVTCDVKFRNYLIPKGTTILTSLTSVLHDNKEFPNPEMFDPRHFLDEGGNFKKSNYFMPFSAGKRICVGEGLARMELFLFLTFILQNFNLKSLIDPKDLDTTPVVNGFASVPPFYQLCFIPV

`CN1C(=O)N(c2cccc(C(F)(F)F)c2)C2=C(C(=O)CCC2)[C@H]1c1ccc(C#N)cc1[S+](C)[O-]` (single isomer, unassigned) [Example 2.2A, 3-Methanesulfinyl-4-[3-methyl-2,5-dioxo-1-(3-trifluoromethyl-phenyl)-1,2,3,4,5,6,7,8-octahydro-quinazolin-4-yl]-benzonitrile] showed a half-life at 1 μM [1] greater than 2.17 h, a Papp A→B at 10 µM ([2]; apical-to-basal, read-out: PEAB) of 19 ×10⁻⁶ cm/s and a Papp B→A at 10 µM ([2]; basal-to-apical, read-out: PEBA) of 97 ×10⁻⁶ cm/s. For the same compound, the pIC50 [3] was less than 4.30, the pIC50 [4] was less than 4.30 and the “predicted hepatic in vivo blood clearance” value [5] was 5 % human hepatic blood flow.
